The values below come from ChEMBL document CHEMBL3045619, “Antitermite activity of 7-alkoxycoumarins and related analogs against Coptotermes formosanus Shiraki” (2012).

For orientation: mortality means the percentage killed.

For this assay, the system named is Coptotermes formosanus. Put plainly: Termiticidal activity against Coptotermes formosanus assessed as mortality at 5 uM up to 14 days by no choice test relative to control. The class given is functional. The settings on record: 336 h.

The structures appear in SMILES notation.

For the molecule `C=CCOc1ccc2ccc(=O)oc2c1` [7-ALLYLOXYCOUMARIN], the mortality at 5 µM stood at 38.4%.
The same measure for `CC#CCOc1ccc2ccc(=O)oc2c1` [7-(2-BUTYNYLOXY)COUMARIN]: 51.5%; for `O=c1ccc2ccc(OCCc3ccccc3)cc2o1` [7-PHENETHOXYCOUMARIN]: 10.1%; for `CC(C)Oc1ccc2ccc(=O)oc2c1` [7-ISOPROPOXYCOUMARIN]: 13.1%.
With `CCCCOc1ccc2ccc(=O)oc2c1` [7-BUTOXYCOUMARIN], the mortality at 5 µM turned out to be 19.2%.
On to `O=c1ccc2ccc(OCCCc3ccccc3)cc2o1` [7-(3-PHENYLPROPOXY)COUMARIN], for which the mortality at 5 µM is 16.2%.
Turning to `COc1ccc2ccc(=O)oc2c1` [HERNIARIN], the mortality at 5 µM was 13.1%.
The result for `CCCCCCCCCCCCOc1ccc2ccc(=O)oc2c1` [7-DODECYLOXYCOUMARIN] reads 19.2%.
Regarding `O=c1ccc2ccc(OCc3ccccc3)cc2o1` [7-BENZYLOXYCOUMARIN], the mortality at 5 µM amounted to 23.2%.
With `O=C(/C=C/c1ccccc1)Oc1ccc2ccc(=O)oc2c1` [7-CINNAMOYLOXYCOUMARIN], the mortality at 5 µM amounted to 12.1%.
On to `CCCCCCCCCCCCCCCCOc1ccc2ccc(=O)oc2c1` [7-HEXADECYLOXYCOUMARIN], for which the mortality at 5 µM stood at 3%.
As to `CCCCCCCCOc1ccc2ccc(=O)oc2c1` [7-OCTYLOXYCOUMARIN], the mortality at 5 µM is 17.2%.
As for `O=c1ccc2ccc(OC3CCCCC3)cc2o1` [7-CYCLOHEXYLOXYCOUMARIN], the mortality at 5 µM was 65.7%.
As to `CCCCCCCCCCCCCCCCCCOc1ccc2ccc(=O)oc2c1` [7-OCTADECYLOXYCOUMARIN], the mortality at 5 µM was found to be 8.1%.
Take `CCOc1ccc2ccc(=O)oc2c1` [ETHOXYCOUMARIN]: the mortality at 5 µM came out at 14.1%.
`COc1ccc(COc2ccc3ccc(=O)oc3c2)cc1`: the mortality at 5 µM was determined as 41.4%.
`CCC#CCOc1ccc2ccc(=O)oc2c1` [7-(2-PENTYNYLOXY)COUMARIN]: the mortality at 5 µM is 32.3%.
With `CCCCCC#CCOc1ccc2ccc(=O)oc2c1` [7-(2-OCTYNYLOXY)COUMARIN], the mortality at 5 µM is 28.3%.
Take `C/C=C/COc1ccc2ccc(=O)oc2c1` [(E)-7-(2-BUTENYLOXY)COUMARIN]: the mortality at 5 µM was determined as 33.3%.
Consider `CC(C)COc1ccc2ccc(=O)oc2c1` [7-ISOBUTOXYCOUMARIN], for which the mortality at 5 µM was 9.1%.
Take `CCCOc1ccc2ccc(=O)oc2c1` [7-PROPOXYCOUMARIN]: the mortality at 5 µM came out at 16.2%.
For `COc1cc(COc2ccc3ccc(=O)oc3c2)cc(OC)c1` [7-(3,5-DIMETHOXYBENZYLOXY)COUMARIN], the mortality at 5 µM was found to be 32.3%.
As for `O=c1ccc2ccc(Oc3ccc([N+](=O)[O-])cc3)cc2o1` [7-(4-NITROPHENOXY)COUMARIN], the mortality at 5 µM was found to be 62.6%.
